Some results are limits rather than exact numbers.

Data set [1] concerns MIA-PaCa-2 cells. Briefly: Surface PS (annexin V-APC) and TUNEL apoptosis stain, MIA-PaCa-2 (FIG. 3B). In kind it is cell-based, human. Here is the method:
(§1) FIG. 3. GEM exposure triggers PS externalization in pancreatic tumor cells. AsPC-1 (A) and Mia-PaCa-2 (B) cells were treated with varying doses of GEM for 24 h, TUNEL apoptosis stain was performed after surface PS staining with annexin V-APC. The overlay histograms show TUNEL-negative (non-apoptotic) cells. TUNEL positive [AsPC-1: CTL=0.3; GEM 10 nM=2.5; GEM 100 nM=4.6]; [MIA-PaCa-2: CTL=3.6; GEM 1 μM=21].
(§2) Importantly, in low surface PS cells a clear increase was evident using sub-toxic concentrations of GEM that caused <10% apoptosis.
(§3) Various cell types were analyzed for surface PS exposure by flow cytometry with annexin V-FTIC. Involvement of flippases in the regulation of surface PS exposure was analyzed by flippase activity assay. Total cellular PS was quantified by TLC separation of phospholipids and estimation of PS phosphorous. Orthotopic PDAC tumors were established by injecting human or murine PDAC cells into animal pancreas. In vivo bioluminescence and fluorescence imaging were performed to monitor tumor targeting and growth. The molecular mechanisms underlying the induction of apoptosis by SapC-DOPS were evaluated in cultured PDAC cells through measurements of cell viability, TUNEL, and flow cytometric DNA fragmentation.

The subject of data set [2] is PDAC cells. Briefly: Surface PS exposure by flow cytometry with annexin V. The settings on record: chemotherapy treatment of PDAC cells. Format: cell-based. As for the experimental part: as §3
For orientation: In flow cytometry, cells or beads pass a laser one at a time.

For data set [3], the system named is AsPC-1 cells. Briefly: Surface PS (annexin V-APC) and TUNEL apoptosis stain, AsPC-1 (FIG. 3A). Format: cell-based, human. The following applies: for TUNEL positive: 24 h (CTL=0.3). Here is the method: as §1, §2, §3
The subject of data set [4] is MIA PaCa-2 human pancreas tumor xenograft. Kind of data set: MIA PaCa-2 human pancreas tumor xenograft model (Example 3). In kind it is in vivo. The settings on record: for Day 35 TW (mg) ± SEM: Day 35 mean tumor weight, Q3Dx4. As for the experimental part: SapC-DOPS was received from Bexion Pharmaceuticals, Inc. and were stored at […] until use. Separate aliquoted vials of SapC-DOPS for the 7.3 mg/kg dose were received. Separate aliquoted vials of vehicle were received, which contained DOPS and no SapC. Each vial was resuspended in 1.2 ml of sterile water for injection (Lot #JPJ551, 13/Braun Medical, Inc., Irvine Calif.). Once formulated, SapC-DOPS was delivered at a 10 ml/kg dose volume. SapC-DOPS and vehicle were formulated fresh daily and administered immediately after preparation.
Gemcitabine (Lot #A735891A) was manufactured by Eli Lilly and Co. (Indianapolis, Ind.) and diluted in a 0.9% NaCl solution (B. Braun Medical, Inc., Irvine, Calif., Lot #J0K465) to a concentration of 4 mg/ml to deliver a 40 mg/kg dose at a 10 ml/kg dose volume. All preparations were made fresh prior to their administration.
The MIA Paca-2 human pancreas tumor cell line was received from American Type Culture Collection (ATCC, Manassas, Va.). Cultures were maintained in RPMI-1640 (Hyclone, Logan, Utah) supplemented with 5% fetal bovine serum, and housed in a 5% CO2 atmosphere. The cultures were expanded in tissue culture flasks at a 1:4 split ratio until a sufficient amount of cells were harvested.
Female NCR nude mice (CrTac:NCR-Foxn1^nu) were supplied by Taconic (Germantown, N.Y.). Mice were received at four weeks' of age, 12-15 g in weight. All mice were acclimated for seven days prior to handling. The mice were housed in microisolator cages (Lab Products, Seaford, Del.) and maintained under specific pathogen-free conditions. The mice were fed PicoLab® irradiated mouse chow (Lab Diet, Richmond, Ind.) and autoclaved water was freely available. […]
Five days following inoculation, tumors were measured using calipers and tumor weight was calculated using the animal study management software, Study Director V. 1.7.54 k (Study Log)^1, Thirty mice with tumor sizes of 105-158 mg were pair-matched into three groups of ten mice each (Day 1). Body weights were recorded when the mice were pair-matched and were taken twice weekly thereafter in conjunction with tumor measurements. […]
On Day 35, tumors were collected from two randomly selected mice per group. […] The lungs were fixed in formalin (Lot #4117, Azer Scientific, Morgantown, Pa.) and sent to the Mayo Clinic Histology (Scottsdale, Ariz.) to be paraffin blocked process through H&E. The lungs were analyzed by a pathologist at Mayo Clinic with emphasis on evidence of granuloma on the lungs.
Mean tumor growth inhibition (TGI) was calculated utilizing the following formula (any tumors that regressed were not used in calculations): […]
The mean tumor shrinkage of each group was calculated and reported. […]
For orientation: In xenograft studies the graft and the host belong to different species.

As to `Nc1ccn([C@@H]2O[C@H](CO)[C@@H](O)C2(F)F)c(=O)n1` [Gemcitabine], the “external PS in viable cells” value was “dose-dependent increase” in data set [1] (24 h, varying doses, moderate surface PS cell line) and “dose-dependent increase” in data set [3] (24 h, varying doses, relatively low surface PS cell line). Moreover, the TUNEL positive was 21 in data set [1] (GEM 1 μM, 24 h (CTL=3.6)); 2.5 in data set [3] (GEM 10 nM); 4.6 in data set [3] (GEM 100 nM). In addition, the “surface PS levels” value in data set [2] is reported as “increase surface PS levels”. The apoptosis in data set [3] (sub-toxic concentrations of GEM giving a clear PS increase in low surface PS cells) is given as below 10%. The “Total Deaths” value in data set [4] (10 mice per group, study to Day 35) turned out to be 0. In addition, the “Day 35 TW (mg) ± SEM” value in data set [4] was 936.0 ± 135.1 mg; in data set [4] (listed as gemcitabine), 936.0 mg. Also, the tolerability result in data set [4] (mouse, in vivo) is given as “well tolerated”.
